Measured values from PubChem BioAssay (NCI).
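96-well plates; 48 h exposure; 5 concentrations. Endpoints by linear interpolation between flanking doses. Not reached: highest tested concentration assigned. The concentration for 50% growth inhibition is given as GI50. TGI marks complete inhibition of growth.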

Columns and labels:
Assay in all cases: growth of human tumour cells (NCI), 48 h
[1] = tested on: UO-31 renal
[2] = tested on: M14 melanoma
[3] = tested on: UACC-62 melanoma
[4] = tested on: SNB-75 CNS
[5] = tested on: NCI-H226 lung
[6] = tested on: A498 renal
[7] = tested on: NCI/ADR-RES ovarian
[8] = tested on: HOP-62 NSCLC
[9] = tested on: SF-539 CNS
[10] = tested on: NCI-H460 lung
[11] = tested on: MALME-3M melanoma
[12] = tested on: U251 CNS
[13] = tested on: MDA-MB-435
[14] = tested on: RXF 393 renal
[15] = tested on: SK-OV-3 ovarian
[16] = tested on: HOP-92 NSCLC
[17] = tested on: LOX IMVI melanoma
[18] = tested on: OVCAR-8 ovarian
[19] = tested on: NCI-H522 lung
[20] = tested on: SNB-19 CNS
[21] = tested on: EKVX NSCLC
[22] = tested on: OVCAR-3 ovarian
[23] = tested on: SK-MEL-2 melanoma
[24] = tested on: SK-MEL-28 melanoma
[25] = tested on: KM12 colon
[26] = tested on: K-562 leukemia
[27] = tested on: HL-60(TB) leukemia
[28] = tested on: OVCAR-5 ovarian
[29] = tested on: DU-145 prostate
[30] = tested on: SK-MEL-5 melanoma
[31] = tested on: COLO 205 colon
[32] = tested on: UACC-257 melanoma
[33] = tested on: MCF7 breast
[34] = tested on: ACHN renal
[35] = tested on: SW-620 colon
[36] = tested on: HCT-116 colon
[37] = tested on: SF-295 CNS
[38] = tested on: HCT-15 colon
[39] = tested on: HS 578T breast
[40] = tested on: A549 NSCLC
[41] = tested on: PC-3 prostate
[42] = tested on: SR leukemia
[43] = tested on: BT-549 breast
[44] = tested on: CAKI-1 renal
[45] = tested on: CCRF-CEM leukemia
[46] = tested on: NCI-H23 lung
[47] = tested on: RPMI-8226 leukemia
[48] = tested on: 786-0 renal
[49] = tested on: OVCAR-4 ovarian
[50] = tested on: TK-10 renal
[51] = tested on: SF-268 CNS
[52] = tested on: IGROV1 ovarian
[53] = tested on: MDA-MB-231 breast
[54] = tested on: T-47D breast
[55] = tested on: HCC-2998 colon
[56] = tested on: SN12C renal

Oc1c(Cl)cc(Cl)c2ccc(Cn3cc(-c4cc(F)cc(F)c4)nn3)nc12
GI50 [1]: 2.06 µM
TGI [1]: 9.93 µM
GI50 [2]: 2.02 µM
TGI [2]: 4.92 µM
GI50 [3]: 3.39 µM
TGI [3]: 14.4 µM
GI50 [4]: 2.07 µM
TGI [4]: 11.8 µM
GI50 [5]: 10 µM
TGI [5]: 29 µM
GI50 [6]: 5.78 µM
TGI [6]: 19.6 µM
GI50 [7]: 24.1 µM
TGI [7]: 85.3 µM
GI50 [8]: 17.4 µM
TGI [8]: 34.9 µM
GI50 [9]: 1.63 µM
TGI [9]: 3.08 µM
GI50 [10]: 18.8 µM
TGI [10]: 35.8 µM
GI50 [11]: 1.84 µM
TGI [11]: 3.74 µM
GI50 [12]: 7.38 µM
TGI [12]: 21.2 µM
GI50 [13]: 2.8 µM
TGI [13]: 8.47 µM
GI50 [14]: 1.36 µM
TGI [14]: 2.99 µM
GI50 [15]: 17 µM
TGI [15]: 31.9 µM
GI50 [16]: 1.63 µM
TGI [16]: 4.37 µM
GI50 [17]: 1.31 µM
TGI [17]: 2.68 µM
GI50 [18]: 3.42 µM
TGI [18]: 27.2 µM
GI50 [19]: 1.72 µM
TGI [19]: 4.83 µM
GI50 [20]: 11.9 µM
TGI [20]: 25.1 µM
GI50 [21]: 11.7 µM
TGI [21]: 25.5 µM
GI50 [22]: 1.66 µM
TGI [22]: 3.2 µM
GI50 [23]: 5.19 µM
TGI [23]: 20.2 µM
GI50 [24]: 2.01 µM
TGI [24]: 4.18 µM
GI50 [25]: 16.3 µM
TGI [25]: 32.1 µM
GI50 [26]: 1.09 µM
TGI [26]: > 100 µM
GI50 [27]: 2.08 µM
TGI [27]: 5.78 µM
GI50 [28]: 4.01 µM
TGI [28]: 15.4 µM
GI50 [29]: 2.14 µM
TGI [29]: 4.6 µM
GI50 [30]: 4.1 µM
TGI [30]: 14.9 µM
GI50 [31]: 2.06 µM
TGI [31]: 4.04 µM
GI50 [32]: 1.76 µM
TGI [32]: 4.83 µM
GI50 [33]: 1.54 µM
TGI [33]: 3.62 µM
GI50 [34]: 1.73 µM
TGI [34]: 3.14 µM
GI50 [35]: 1.49 µM
TGI [35]: 3.35 µM
GI50 [36]: 1.61 µM
TGI [36]: 3.53 µM
GI50 [37]: 17.8 µM
TGI [37]: 32.9 µM
GI50 [38]: 2.21 µM
TGI [38]: 5.42 µM
GI50 [39]: 3.22 µM
TGI [39]: 20 µM
GI50 [40]: 18.8 µM
TGI [40]: 38.4 µM
GI50 [41]: 5.26 µM
TGI [41]: 18.8 µM
GI50 [42]: 2.87 µM
TGI [42]: > 100 µM
GI50 [43]: 2.51 µM
TGI [43]: 9.49 µM
GI50 [44]: 1.78 µM
TGI [44]: 4 µM
GI50 [45]: 0.832 µM
TGI [45]: > 100 µM
GI50 [46]: 3.5 µM
TGI [46]: 12.8 µM
GI50 [47]: 2.19 µM
TGI [47]: 6.36 µM
GI50 [48]: 2.09 µM
TGI [48]: 4.84 µM
GI50 [49]: 1.87 µM
TGI [49]: 4.43 µM
GI50 [50]: 2.1 µM
TGI [50]: 4.23 µM
GI50 [51]: 11.3 µM
TGI [51]: 30.3 µM
GI50 [52]: 1.82 µM
TGI [52]: 4.18 µM
GI50 [53]: 2.71 µM
TGI [53]: 8.65 µM
GI50 [54]: 2.27 µM
TGI [54]: 7.17 µM
GI50 [55]: 13.3 µM
TGI [55]: 29.1 µM
GI50 [56]: 4.21 µM
TGI [56]: 16.2 µM
